In US20230066011A1, “PYRROLOPYRIMIDINE DERIVATIVE, AND PHARMACEUTICAL COMPOSITION FOR PREVENTING OR TREATING PROTEIN KINASE-RELATED DISEASE COMPRISING SAME AS ACTIVE INGREDIENT” (VORONOI CO., LTD., priority 2019, published 2023):

Experiments:
Assay type in all cases: biochemical
LRRK2 (G2019S) = LRRK2 (G2019S) (Homo sapiens, UniProt Q5S007, G2019S); assay: LRRK2 G2019S enzyme inhibition, ADP-Glo kinase assay; parameters: purchased SignalChem L10-12GG; conditions: ATP 25 μM
Procedure, shortened: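 IC50 derived from luminescent ADP-Glo readout against untreated solvent control, twelve final compound concentrations from 50 μM downward. Reaction: recombinant human LRRK2 G2019S enzyme, 25 μM ATP, substrate, pH 7.4 Tris buffer with MgCl2/BSA/DTT, 25° C. for 2 hours.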

human GST-DYRK1A = molecular target: T1, human GST-DYRK1A (Homo sapiens, UniProt Q13627); assay: GST-DYRK1A enzyme inhibition, ADP-Glo kinase assay; conditions: ATP 10 μM, GST-DYRK1A full length, read-out: DYRK1 IC50
T1 construct: purified human GST-DYRK1A (full length, Thermo Scientifics) enzyme; purchased Thermo Scientifics
Procedure, shortened: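 Full-length enzyme (10 ng) was incubated with 10 μM ATP and a specific substrate for 1 h at 25 °C in 40 mM Tris-HCl pH 7.4, 20 mM MgCl2, 0.5 mg/mL BSA, 50 μM DTT. Luminescence was read against a solvent control, and IC50 values were derived from 3 data sets.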

human GST-CLK1 = molecular target: T2, human GST-CLK1 (Homo sapiens, UniProt P49759); assay: GST-CLK1 enzyme inhibition, ADP-Glo kinase assay; conditions: ATP 10 μM, GST-CLK1 129-end
T2 construct: purified human GST-CLK1 (129-end, SignalChem) enzyme; purchased SignalChem
T2 sequence (P49759 129-484 limits assumed): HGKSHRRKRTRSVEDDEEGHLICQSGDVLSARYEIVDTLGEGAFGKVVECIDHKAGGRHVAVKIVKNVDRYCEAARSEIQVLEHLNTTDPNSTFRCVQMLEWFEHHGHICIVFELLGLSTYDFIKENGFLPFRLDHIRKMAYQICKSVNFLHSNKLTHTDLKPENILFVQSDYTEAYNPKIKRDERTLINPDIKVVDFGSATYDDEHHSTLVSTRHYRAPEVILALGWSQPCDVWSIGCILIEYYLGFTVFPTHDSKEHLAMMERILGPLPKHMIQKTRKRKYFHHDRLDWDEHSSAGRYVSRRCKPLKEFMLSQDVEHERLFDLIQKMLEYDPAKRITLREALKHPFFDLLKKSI
Procedure, shortened: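 ADP-Glo luminescence read-out, relative to untreated solvent control, gave IC50 (nM) from triplicate data sets. Reactions ran an hour at 25° C with 3 ng GST-CLK1 (residues 129-end), 10 μM ATP and specific substrate in Tris-HCl pH 7.4 buffer with MgCl2, BSA and DTT.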

LRRK2 = LRRK2 (Homo sapiens, UniProt Q5S007); assay: LRRK2 enzyme inhibition, ADP-Glo kinase assay; parameters: purchased Invitrogen PR8604B; conditions: ATP 10 μM
LRRK2, sequence (Q5S007 970-2527 limits assumed): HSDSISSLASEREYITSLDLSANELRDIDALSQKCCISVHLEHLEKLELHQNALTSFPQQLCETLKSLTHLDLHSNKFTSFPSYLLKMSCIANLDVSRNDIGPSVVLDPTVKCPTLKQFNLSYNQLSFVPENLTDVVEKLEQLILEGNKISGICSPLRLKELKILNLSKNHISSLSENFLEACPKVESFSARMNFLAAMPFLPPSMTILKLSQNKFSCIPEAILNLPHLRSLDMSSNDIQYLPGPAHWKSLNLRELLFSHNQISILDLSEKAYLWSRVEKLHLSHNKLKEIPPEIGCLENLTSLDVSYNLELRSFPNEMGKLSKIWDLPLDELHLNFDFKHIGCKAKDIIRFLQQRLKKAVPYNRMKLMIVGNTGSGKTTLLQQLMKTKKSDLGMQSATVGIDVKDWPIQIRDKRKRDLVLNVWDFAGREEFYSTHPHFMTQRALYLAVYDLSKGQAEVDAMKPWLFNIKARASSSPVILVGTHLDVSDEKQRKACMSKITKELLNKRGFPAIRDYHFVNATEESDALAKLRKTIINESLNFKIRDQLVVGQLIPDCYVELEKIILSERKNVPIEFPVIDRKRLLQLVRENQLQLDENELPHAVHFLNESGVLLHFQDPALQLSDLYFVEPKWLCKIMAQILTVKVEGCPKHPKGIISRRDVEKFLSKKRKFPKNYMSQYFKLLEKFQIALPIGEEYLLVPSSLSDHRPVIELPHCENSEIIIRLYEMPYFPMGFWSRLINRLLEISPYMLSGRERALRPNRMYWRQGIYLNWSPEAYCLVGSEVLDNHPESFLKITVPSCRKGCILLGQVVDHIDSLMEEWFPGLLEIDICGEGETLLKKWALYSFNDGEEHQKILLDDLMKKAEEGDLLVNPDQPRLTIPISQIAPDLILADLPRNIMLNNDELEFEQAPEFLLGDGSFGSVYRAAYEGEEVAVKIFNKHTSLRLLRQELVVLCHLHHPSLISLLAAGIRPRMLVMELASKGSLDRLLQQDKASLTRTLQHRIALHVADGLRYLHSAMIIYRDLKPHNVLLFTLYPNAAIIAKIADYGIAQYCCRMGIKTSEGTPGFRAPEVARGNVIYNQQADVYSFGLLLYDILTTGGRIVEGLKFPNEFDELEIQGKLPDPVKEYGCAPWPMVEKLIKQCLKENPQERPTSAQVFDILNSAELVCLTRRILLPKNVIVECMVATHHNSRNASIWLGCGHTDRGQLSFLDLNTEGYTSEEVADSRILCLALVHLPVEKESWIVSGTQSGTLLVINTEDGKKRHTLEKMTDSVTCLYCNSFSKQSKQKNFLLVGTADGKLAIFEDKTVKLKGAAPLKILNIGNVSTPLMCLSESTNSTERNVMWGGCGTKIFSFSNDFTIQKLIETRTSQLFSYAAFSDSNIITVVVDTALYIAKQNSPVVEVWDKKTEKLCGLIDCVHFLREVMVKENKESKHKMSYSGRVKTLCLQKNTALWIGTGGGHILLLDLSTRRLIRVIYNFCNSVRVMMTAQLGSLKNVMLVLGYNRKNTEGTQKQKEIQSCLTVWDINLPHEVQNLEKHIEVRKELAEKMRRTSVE
Description: To evaluate an inhibitory activity of the compound according to the present invention against LRRK2, LRRK2 (G2019S), DYRK1, CLK1, and TTK kinases, experiments were performed as follows.
Each of the Example compounds was reacted with a purified human LRRK2 (Invitrogen #PR8604B) enzyme to evaluate an ability to inhibit an enzyme using a method as described below. A composition of 40 mM Tris-HCl (pH 7.4), 20 mM MgCl2, 0.5 mg/mL BSA, and 50 μM DTT was used as a reaction buffer, and all reactions of test substances were performed in the reaction buffer. Each of the compounds was diluted […] from a 10 mM DMSO stock using a serial dilution method, and enzyme activities were measured at final compound concentrations of 50, 10, 2, 0.4, 0.08, 0.016, 0.0032, 0.00064, 0.000128, 0.0000256, 0.00000512, and 0.000001024 μM. In the test, purified ATP (10 μM) and an enzyme substrate (0.2 μg) were reacted with a human LRRK2 (25 ng) enzyme at 25° C. for 2 hours, and the enzyme activities were determined using an in vitro ADP-Glo™ kinase assay (Promega). An enzyme-activity reaction solution, an ADP-Glo reaction solution, and an enzyme-ability detection solution were reacted at a ratio of 2:2:1 to measure a degree of inhibition of the enzyme activity with luminescence. The degree of inhibition of the enzyme activity according to the treatment concentration of each of the compounds was calculated based on the fluorescence of the enzyme activity of the solvent control which was not treated with the compound. In this case, the concentration of each of the compounds inhibiting 50% of the enzyme activity was determined to be an IC50 (nM) value, and calculated using Prism (Version 5.01; GraphPad) software.

LRRK2 (G2019S), sequence (Q5S007 970-2527 G2019S limits assumed): as the sequence (Q5S007 970-2527 limits assumed) above, with G1050S counted along it

SMILES: COCCNc1nc(Nc2ccc(C(=O)N3CCOCC3)c3c2OCCO3)nc2[nH]cc(C(N)=O)c12 [Example 235, 4-((2-methoxyethyl)amino)-2-((8-(morpholine-4-carbonyl)-2,3-dihydrobenzo[b][1,4]dioxin-5-yl)amino)-7H-pyrrolo[2,3-d]pyrimidine-5-carboxamide]
- IC50 (LRRK2 (G2019S)): 301 to 1000 nM
- IC50 (human GST-DYRK1A): 301 to 1000 nM
- IC50 (human GST-CLK1): 301 to 1000 nM
- IC50 (LRRK2): 301 to 1000 nM

SMILES: COc1cc(S(C)(=O)=O)ccc1Nc1nc(NC2CC2)c2c(C(F)(F)F)c[nH]c2n1 [Example 376, N^4-cyclopropyl-N^2-(2-methoxy-4-(methylsulfonyl)phenyl)-5-(trifluoromethyl)-7H-pyrrolo[2,3-d]pyrimidine-2,4-diamine]
- IC50 (LRRK2 (G2019S)): < 100 nM
- IC50 (human GST-DYRK1A): 301 to 1000 nM
- IC50 (human GST-CLK1): 101 to 300 nM
- IC50 (LRRK2): < 100 nM

SMILES: COc1cc(S(C)(=O)=O)ccc1Nc1nc(NC2CCC2)c2c(C(F)(F)F)c[nH]c2n1 [Example 184, N^4-cyclobutyl-N^2-(2-methoxy-4-(methylsulfonyl)phenyl)-5-(trifluoromethyl)-7H-pyrrolo[2,3-d]pyrimidine-2,4-diamine]
- IC50 (LRRK2 (G2019S)): 101 to 300 nM
- IC50 (human GST-DYRK1A): 301 to 1000 nM
- IC50 (human GST-CLK1): 101 to 300 nM
- IC50 (LRRK2): < 100 nM

SMILES: CNc1nc(Nc2ccc(C(=O)N3CCC(N4CCOCC4)CC3)c3c2OCCO3)nc2[nH]cc(C#N)c12 [Example 136, 4-(methylamino)-2-((8-(4-morpholinopiperidine-1-carbonyl)-2,3-dihydrobenzo[b][1,4]dioxin-5-yl)amino)-7H-pyrrolo[2,3-d]pyrimidine-5-carbonitrile]
- IC50 (LRRK2 (G2019S)): < 100 nM
- IC50 (human GST-DYRK1A): 101 to 300 nM
- IC50 (human GST-CLK1): < 100 nM
- IC50 (LRRK2): < 100 nM

SMILES: COc1cc(S(C)(=O)=O)ccc1Nc1nc(NC2CCCC2)c2c(C#N)c[nH]c2n1 [Example 106, 4-(cyclopentylamino)-2-((2-methoxy-4-(methylsulfonyl)phenyl)amino)-7H-pyrrolo[2,3-d]pyrimidine-5-carbonitrile]
- IC50 (LRRK2 (G2019S)): < 100 nM
- IC50 (human GST-DYRK1A): 301 to 1000 nM
- IC50 (human GST-CLK1): 301 to 1000 nM
- IC50 (LRRK2): < 100 nM

SMILES: COc1cc(S(C)(=O)=O)ccc1Nc1nc(NC2CCCCC2)c2c(C#N)c[nH]c2n1 [Example 107, 4-(cyclohexylamino)-2-((2-methoxy-4-(methylsulfonyl)phenyl)amino)-7H-pyrrolo[2,3-d]pyrimidine-5-carbonitrile]
- IC50 (LRRK2 (G2019S)): 301 to 1000 nM
- IC50 (human GST-DYRK1A): 301 to 1000 nM
- IC50 (human GST-CLK1): 301 to 1000 nM
- IC50 (LRRK2): 301 to 1000 nM

SMILES: CCCNc1nc(Nc2ccc(C(=O)N3CCOCC3)c3c2OCCO3)nc2[nH]cc(C(F)(F)F)c12 [Example 162, morpholino(8-((4-(propylamino)-5-(trifluoromethyl)-7H-pyrrolo[2,3-d]pyrimidin-2-yl)amino)-2,3-dihydrobenzo[b][1,4]dioxin-5-yl)methanone]
- IC50 (LRRK2 (G2019S)): < 100 nM
- IC50 (human GST-DYRK1A): 301 to 1000 nM
- IC50 (human GST-CLK1): 301 to 1000 nM
- IC50 (LRRK2): < 100 nM

SMILES: COCCNc1nc(Nc2ccc(S(C)(=O)=O)cc2OC)nc2[nH]cc(C(F)(F)F)c12 [Example 171, N^2-(2-methoxy-4-(methylsulfonyl)phenyl)-N^4-(2-methoxyethyl)-5-(trifluoromethyl)-7H-pyrrolo[2,3-d]pyrimidine-2,4-diamine]
- IC50 (LRRK2 (G2019S)): < 100 nM
- IC50 (human GST-DYRK1A): 301 to 1000 nM
- IC50 (human GST-CLK1): 301 to 1000 nM
- IC50 (LRRK2): < 100 nM

SMILES: CC(C)Nc1nc(Nc2ccc(C(=O)N3CCOCC3)c3c2OCCO3)nc2[nH]cc(C#N)c12 [Example 122, 4-(isopropylamino)-2-((8-(morpholine-4-carbonyl)-2,3-dihydrobenzo[b][1,4]dioxin-5-yl)amino)-7H-pyrrolo[2,3-d]pyrimidine-5-carbonitrile]
- IC50 (LRRK2 (G2019S)): < 100 nM
- IC50 (human GST-DYRK1A): 101 to 300 nM
- IC50 (human GST-CLK1): < 100 nM
- IC50 (LRRK2): < 100 nM

SMILES: O=C(c1ccc(Nc2nc(NC3CCCC3)c3c(C(F)(F)F)c[nH]c3n2)c2c1OCCO2)N1CCOCC1 [Example 189, (8-((4-(cyclopentylamino)-5-(trifluoromethyl)-7H-pyrrolo[2,3-d]pyrimidin-2-yl)amino)-2,3-dihydrobenzo[b][1,4]dioxin-5-yl)(morpholino)methanone]
- IC50 (human GST-DYRK1A): 101 to 300 nM
- IC50 (human GST-CLK1): 101 to 300 nM
- IC50 (LRRK2): < 100 nM

SMILES: COc1cc(S(C)(=O)=O)ccc1Nc1nc(NCC2CCCC2)c2c(C#N)c[nH]c2n1 [Example 113, 4-((cyclopentylmethyl)amino)-2-((2-methoxy-4-(methylsulfonyl)phenyl)amino)-7H-pyrrolo[2,3-d]pyrimidine-5-carbonitrile]
- IC50 (human GST-DYRK1A): 301 to 1000 nM
- IC50 (human GST-CLK1): 301 to 1000 nM
- IC50 (LRRK2): < 100 nM

SMILES: CNc1nc(Nc2ccc(C(=O)N3CCOCC3)c3c2OCO3)nc2[nH]cc(C(F)(F)F)c12 [Example 214, (7-((4-(methylamino)-5-(trifluoromethyl)-7H-pyrrolo[2,3-d]pyrimidin-2-yl)amino)benzo[d][1,3]dioxol-4-yl)(morpholino)methanone]
- IC50 (human GST-DYRK1A): < 100 nM
- IC50 (human GST-CLK1): < 100 nM
- IC50 (LRRK2): < 100 nM

SMILES: COc1cc(P2(=O)CCN(C3CC3)CC2)ccc1Nc1nc(NC2CC2)c2c(C(F)(F)F)c[nH]c2n1 [Example 404, 1-cyclopropyl-4-(4-((4-(cyclo-propylamino) 5-(trifluoromethyl)-7H-pyrrolo[2,3-d]pyrimidin-2-yl)amino)3-methoxyphenyl)-1,4-azaphosphinane 4-oxide]
- IC50 (human GST-DYRK1A): < 100 nM
- IC50 (human GST-CLK1): < 100 nM
- IC50 (LRRK2): < 100 nM

SMILES: COc1cc(S(C)(=O)=O)ccc1Nc1nc(NCC2CCC2)c2c(C#N)c[nH]c2n1 [Example 112, 4-((cyclobutylmethyl)amino)-2-((2-methoxy-4-(methylsulfonyl)phenyl)amino)-7H-pyrrolo[2,3-d]pyrimidine-5-carbonitrile]
- IC50 (human GST-DYRK1A): 301 to 1000 nM
- IC50 (human GST-CLK1): 301 to 1000 nM
- IC50 (LRRK2): < 100 nM

SMILES: COc1cc(S(C)(=O)=O)ccc1Nc1nc(NC2CCOCC2)c2c(C#N)c[nH]c2n1 [Example 109, 2-((2-methoxy-4-(methylsulfonyl)phenyl)amino)-4-((tetrahydro-2H-pyran-4-yl)amino)-7H-pyrrolo[2,3-d]pyrimidine-5-carbonitrile]
- IC50 (human GST-DYRK1A): 301 to 1000 nM
- IC50 (human GST-CLK1): 301 to 1000 nM
- IC50 (LRRK2): < 100 nM

SMILES: COc1cc(S(=O)(=O)N2CCC(N3CCOCC3)CC2)ccc1Nc1nc(NCC2CCC2)c2c(C#N)c[nH]c2n1 [Example 94, 4-((cyclobutylmethyl)amino)-2-((2-methoxy-4-((4-morpholinopiperidin-1-yl)sulfonyl)phenyl)amino)-7H-pyrrolo[2,3-d]pyrimidine-5-carbonitrile]
- IC50 (human GST-DYRK1A): 301 to 1000 nM
- IC50 (human GST-CLK1): 301 to 1000 nM
- IC50 (LRRK2): < 100 nM

SMILES: O=C(c1ccc(Nc2nc(NC3CCCCC3)c3c(C(F)(F)F)c[nH]c3n2)c2c1OCCO2)N1CCOCC1 [Example 190, (8-((4-(cyclohexylamino)-5-(trifluoromethyl)-7H-pyrrolo[2,3-d]pyrimidin-2-yl)amino)-2,3-dihydrobenzo[b][1,4]dioxin-5-yl)(morpholino)methanone]
- IC50 (human GST-DYRK1A): 301 to 1000 nM
- IC50 (human GST-CLK1): 301 to 1000 nM
- IC50 (LRRK2): < 100 nM

SMILES: O=C(c1ccc(Nc2nc(NCC3CCC3)c3c(C(F)(F)F)c[nH]c3n2)c2c1OCCO2)N1CCN(C2COC2)CC1 [Example 424, (8-((4-((cyclo-butylmethyl)amino)-5-(trifluoromethyl)-7H-pyrrolo[2,3-d]pyrimidin-2-yl)amino)-2,3-dihydrobenzo[b] [1,4]dioxin-5-yl) (4-(oxetan-3-yl)piperazin-1-yl)methanone]
- IC50 (human GST-DYRK1A): 301 to 1000 nM
- IC50 (human GST-CLK1): 301 to 1000 nM
- IC50 (LRRK2): < 100 nM
